Source: patent US20230391768A2, “IMIDAZOPYRIDINE DERIVATIVES AND AZA-IMIDAZOPYRIDINE DERIVATIVES AS JANUS KINASE 2 INHIBITORS AND USES THEREOF” (Dana-Farber Cancer Institute, Inc., priority 2018, published 2023)

Assays:
Test in all cases: KINOMEscan
Type in all cases: binding
Conditions in all cases: read-out: percent of control
[1] = target: RIOK2 (Homo sapiens (Human), UniProt Q9BVS4)
Procedure: (§1) In vitro profiling of Compound I-2 (1 μM) was performed using the DiscoveRx KINOMEscan® platform.

[2] = target: CDK4 (Homo sapiens (Human), UniProt P11802)
Procedure: as §1

[3] = target: ANKK1 (Homo sapiens (Human), UniProt Q8NFD2)
Procedure: as §1

[4] = target: KIT(L576P) (Homo sapiens (Human), UniProt P10721, L576P)
Procedure: as §1

[5] = target: TAOK3 (Homo sapiens (Human), UniProt Q9H2K8)
Procedure: as §1

[6] = target: PIM1 (Homo sapiens (Human), UniProt P11309)
Procedure: as §1

[7] = target: MLK1 (Homo sapiens (Human), UniProt P80192)
Procedure: as §1

[8] = target: KIT(D816H) (Homo sapiens (Human), UniProt P10721, D816H)
Procedure: as §1

[9] = target: CDK11 (Homo sapiens (Human), UniProt Q9BWU1)
Procedure: as §1

[10] = target: p38-delta (Homo sapiens (Human), UniProt O15264)
Procedure: as §1

[11] = target: MST1R (Homo sapiens (Human), UniProt Q04912)
Procedure: as §1

[12] = target: FLT3 (N841I) (Homo sapiens (Human), UniProt P36888, N841I)
Procedure: as §1

[13] = target: MYLK (Homo sapiens (Human), UniProt Q15746)
Procedure: as §1

[14] = target: AURKC (Homo sapiens (Human), UniProt Q9UQB9)
Procedure: as §1

[15] = target: CAMKK2 (Homo sapiens (Human), UniProt Q96RR4)
Procedure: as §1

[16] = target: p38-alpha (Homo sapiens (Human), UniProt Q16539)
Procedure: as §1

[17] = target: BTK (Homo sapiens (Human), UniProt Q06187)
Procedure: as §1

[18] = target: MAPKAPK2 (Homo sapiens (Human), UniProt P49137)
Procedure: as §1

[19] = target: STK16 (Homo sapiens (Human), UniProt O75716)
Procedure: as §1

[20] = target: GRK4 (Homo sapiens (Human), UniProt P32298)
Procedure: as §1

[21] = target: MAP3K3 (Homo sapiens (Human), UniProt Q99759)
Procedure: as §1

[22] = target: MLK2 (Homo sapiens (Human), UniProt Q02779)
Procedure: as §1

[23] = target: DYRK2 (Homo sapiens (Human), UniProt Q92630)
Procedure: as §1

[24] = target: AXL (Homo sapiens (Human), UniProt P30530)
Procedure: as §1

[25] = target: PIK4CB (Homo sapiens (Human), UniProt Q9UBF8)
Procedure: as §1

[26] = target: MYO3A (Homo sapiens (Human), UniProt Q8NEV4)
Procedure: as §1

[27] = target: GRK7 (Homo sapiens (Human), UniProt Q8WTQ7)
Procedure: as §1

[28] = target: ABL1(M351T)-phosphorylated (Homo sapiens (Human), UniProt P00519, M351T)
Procedure: as §1

[29] = target: JAK2(JH1domain-catalytic (Homo sapiens (Human), UniProt O60674))
Procedure: as §1

[30] = target: CAMK2G (Homo sapiens (Human), UniProt Q13555)
Procedure: as §1

[31] = target: MEK5 (Homo sapiens (Human), UniProt Q13163)
Procedure: as §1

[32] = target: PLK2 (Homo sapiens (Human), UniProt Q9NYY3)
Procedure: as §1

[33] = target: ASK1 (Homo sapiens (Human), UniProt Q99683)
Procedure: as §1

[34] = target: GFR(L747-S752del, P753S (Homo sapiens (Human), UniProt P00533, DEL747-752/P753S))
Procedure: as §1

[35] = target: FRK (Homo sapiens (Human), UniProt P42685)
Procedure: as §1

[36] = target: NEK9 (Homo sapiens (Human), UniProt Q8TD19)
Procedure: as §1

[37] = target: PCTK3 (Homo sapiens (Human), UniProt Q07002)
Procedure: as §1

[38] = target: ABL1(Q252H)-nonphosphorylated (Homo sapiens (Human), UniProt P00519, Q252H)
Procedure: as §1

Chain of PIK4CB (Q9UBF8 whole entry): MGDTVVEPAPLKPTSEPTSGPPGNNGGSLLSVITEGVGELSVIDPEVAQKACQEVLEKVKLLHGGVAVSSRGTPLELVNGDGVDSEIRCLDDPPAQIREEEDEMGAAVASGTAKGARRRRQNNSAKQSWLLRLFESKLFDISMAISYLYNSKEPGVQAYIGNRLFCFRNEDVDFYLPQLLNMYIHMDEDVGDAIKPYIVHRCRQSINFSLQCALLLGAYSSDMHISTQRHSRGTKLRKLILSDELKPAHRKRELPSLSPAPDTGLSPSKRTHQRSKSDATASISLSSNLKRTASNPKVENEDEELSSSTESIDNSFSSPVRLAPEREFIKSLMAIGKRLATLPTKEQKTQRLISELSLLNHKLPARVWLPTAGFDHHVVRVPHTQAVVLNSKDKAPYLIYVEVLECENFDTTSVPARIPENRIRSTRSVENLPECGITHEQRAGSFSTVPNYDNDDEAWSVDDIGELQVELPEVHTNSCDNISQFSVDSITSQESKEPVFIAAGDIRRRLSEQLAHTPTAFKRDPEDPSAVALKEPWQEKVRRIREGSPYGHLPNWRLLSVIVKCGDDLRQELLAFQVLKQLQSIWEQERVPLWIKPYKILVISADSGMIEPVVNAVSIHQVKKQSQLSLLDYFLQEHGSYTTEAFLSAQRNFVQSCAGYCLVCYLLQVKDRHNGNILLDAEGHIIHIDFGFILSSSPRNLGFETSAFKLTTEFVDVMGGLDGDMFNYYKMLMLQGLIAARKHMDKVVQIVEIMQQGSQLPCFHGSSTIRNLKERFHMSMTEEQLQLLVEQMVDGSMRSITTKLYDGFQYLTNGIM
Chain of p38-delta (O15264 whole entry): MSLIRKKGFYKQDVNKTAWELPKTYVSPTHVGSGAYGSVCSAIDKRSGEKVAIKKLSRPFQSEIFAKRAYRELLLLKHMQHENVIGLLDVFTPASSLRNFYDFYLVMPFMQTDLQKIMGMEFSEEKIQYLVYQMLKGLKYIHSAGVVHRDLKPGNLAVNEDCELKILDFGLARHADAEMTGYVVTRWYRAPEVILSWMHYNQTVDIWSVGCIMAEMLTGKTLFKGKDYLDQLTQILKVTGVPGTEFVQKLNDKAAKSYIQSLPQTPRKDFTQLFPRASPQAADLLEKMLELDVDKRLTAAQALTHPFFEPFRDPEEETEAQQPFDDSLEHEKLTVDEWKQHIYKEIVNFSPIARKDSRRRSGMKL
Chain of p38-alpha (Q16539 whole entry): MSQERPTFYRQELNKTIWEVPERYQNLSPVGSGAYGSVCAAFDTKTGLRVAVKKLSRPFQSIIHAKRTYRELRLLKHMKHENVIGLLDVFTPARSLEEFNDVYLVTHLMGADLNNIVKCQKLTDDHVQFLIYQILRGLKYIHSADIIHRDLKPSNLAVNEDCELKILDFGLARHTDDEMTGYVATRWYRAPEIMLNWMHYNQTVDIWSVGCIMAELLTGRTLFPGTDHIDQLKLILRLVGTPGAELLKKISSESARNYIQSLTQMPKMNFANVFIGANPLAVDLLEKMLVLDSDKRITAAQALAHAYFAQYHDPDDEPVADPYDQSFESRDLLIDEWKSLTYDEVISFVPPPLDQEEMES
Chain of MAPKAPK2 (P49137 whole entry): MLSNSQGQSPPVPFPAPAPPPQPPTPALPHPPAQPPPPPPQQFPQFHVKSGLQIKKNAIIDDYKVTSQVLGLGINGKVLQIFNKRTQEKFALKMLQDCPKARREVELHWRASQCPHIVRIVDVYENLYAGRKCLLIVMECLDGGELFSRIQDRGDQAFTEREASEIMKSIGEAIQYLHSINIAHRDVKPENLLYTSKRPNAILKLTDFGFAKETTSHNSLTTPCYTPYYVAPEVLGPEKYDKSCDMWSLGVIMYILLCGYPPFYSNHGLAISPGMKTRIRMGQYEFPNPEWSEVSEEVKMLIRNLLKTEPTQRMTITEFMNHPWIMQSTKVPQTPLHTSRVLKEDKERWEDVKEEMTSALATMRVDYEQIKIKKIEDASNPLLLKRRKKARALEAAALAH
Chain of GFR(L747-S752del, P753S (P00533 other isoform, or with tags, fused parts or gaps P753S/del 1-668/del 747-752/del 1012-1210 limits assumed): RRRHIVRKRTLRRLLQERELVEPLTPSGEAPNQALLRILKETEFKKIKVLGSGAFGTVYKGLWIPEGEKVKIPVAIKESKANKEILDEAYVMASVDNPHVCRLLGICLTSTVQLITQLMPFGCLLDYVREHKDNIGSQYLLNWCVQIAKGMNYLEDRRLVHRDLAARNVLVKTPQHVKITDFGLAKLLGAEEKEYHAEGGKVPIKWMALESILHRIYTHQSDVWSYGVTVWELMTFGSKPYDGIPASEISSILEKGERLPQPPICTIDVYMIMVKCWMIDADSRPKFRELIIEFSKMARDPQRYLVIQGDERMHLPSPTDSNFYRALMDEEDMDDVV
Chain of FRK (P42685 whole entry): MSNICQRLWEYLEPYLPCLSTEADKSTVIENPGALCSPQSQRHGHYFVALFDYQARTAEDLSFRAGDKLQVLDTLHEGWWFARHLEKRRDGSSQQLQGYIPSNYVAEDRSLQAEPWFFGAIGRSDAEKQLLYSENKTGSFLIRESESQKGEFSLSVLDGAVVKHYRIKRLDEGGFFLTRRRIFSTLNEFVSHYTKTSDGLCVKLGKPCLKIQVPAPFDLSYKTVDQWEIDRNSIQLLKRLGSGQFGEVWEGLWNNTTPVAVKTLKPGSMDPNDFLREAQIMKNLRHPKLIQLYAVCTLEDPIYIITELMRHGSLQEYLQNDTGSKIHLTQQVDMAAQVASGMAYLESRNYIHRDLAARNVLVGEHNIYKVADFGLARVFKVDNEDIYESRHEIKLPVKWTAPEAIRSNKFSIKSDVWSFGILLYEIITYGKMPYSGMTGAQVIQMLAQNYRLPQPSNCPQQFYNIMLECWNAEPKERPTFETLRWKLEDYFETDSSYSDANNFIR
Chain of ASK1 (Q99683 whole entry): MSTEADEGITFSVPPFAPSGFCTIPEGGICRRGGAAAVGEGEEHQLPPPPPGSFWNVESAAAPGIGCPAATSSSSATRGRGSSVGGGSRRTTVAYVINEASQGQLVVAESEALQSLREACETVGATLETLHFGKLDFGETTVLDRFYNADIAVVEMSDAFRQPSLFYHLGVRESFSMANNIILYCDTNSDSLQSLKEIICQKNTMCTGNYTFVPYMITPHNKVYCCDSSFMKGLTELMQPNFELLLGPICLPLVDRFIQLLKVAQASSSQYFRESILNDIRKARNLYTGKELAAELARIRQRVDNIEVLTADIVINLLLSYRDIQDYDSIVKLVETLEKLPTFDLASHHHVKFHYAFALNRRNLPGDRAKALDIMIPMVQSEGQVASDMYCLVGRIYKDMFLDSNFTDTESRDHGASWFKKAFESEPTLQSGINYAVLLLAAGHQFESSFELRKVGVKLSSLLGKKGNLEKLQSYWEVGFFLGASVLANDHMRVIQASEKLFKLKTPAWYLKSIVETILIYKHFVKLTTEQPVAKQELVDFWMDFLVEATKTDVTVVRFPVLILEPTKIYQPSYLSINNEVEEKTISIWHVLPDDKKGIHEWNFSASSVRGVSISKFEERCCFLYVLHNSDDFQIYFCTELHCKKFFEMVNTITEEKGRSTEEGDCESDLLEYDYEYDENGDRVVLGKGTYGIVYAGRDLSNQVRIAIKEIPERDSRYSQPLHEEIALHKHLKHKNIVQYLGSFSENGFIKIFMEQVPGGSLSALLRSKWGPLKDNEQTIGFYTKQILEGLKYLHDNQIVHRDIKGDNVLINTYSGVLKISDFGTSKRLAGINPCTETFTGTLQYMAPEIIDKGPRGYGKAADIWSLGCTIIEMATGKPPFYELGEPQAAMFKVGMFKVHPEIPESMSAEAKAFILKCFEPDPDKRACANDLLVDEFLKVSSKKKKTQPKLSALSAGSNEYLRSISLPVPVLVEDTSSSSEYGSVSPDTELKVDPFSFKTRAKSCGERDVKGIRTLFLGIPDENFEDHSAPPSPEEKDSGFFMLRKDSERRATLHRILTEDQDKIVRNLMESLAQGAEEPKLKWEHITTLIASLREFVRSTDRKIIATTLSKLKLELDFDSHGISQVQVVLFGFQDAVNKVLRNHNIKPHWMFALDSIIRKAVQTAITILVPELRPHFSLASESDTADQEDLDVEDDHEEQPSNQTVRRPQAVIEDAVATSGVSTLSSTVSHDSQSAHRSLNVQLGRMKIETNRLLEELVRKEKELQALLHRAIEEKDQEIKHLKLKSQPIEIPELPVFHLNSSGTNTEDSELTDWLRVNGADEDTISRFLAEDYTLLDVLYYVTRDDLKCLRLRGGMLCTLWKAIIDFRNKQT
Chain of CDK11 (Q9BWU1 whole entry): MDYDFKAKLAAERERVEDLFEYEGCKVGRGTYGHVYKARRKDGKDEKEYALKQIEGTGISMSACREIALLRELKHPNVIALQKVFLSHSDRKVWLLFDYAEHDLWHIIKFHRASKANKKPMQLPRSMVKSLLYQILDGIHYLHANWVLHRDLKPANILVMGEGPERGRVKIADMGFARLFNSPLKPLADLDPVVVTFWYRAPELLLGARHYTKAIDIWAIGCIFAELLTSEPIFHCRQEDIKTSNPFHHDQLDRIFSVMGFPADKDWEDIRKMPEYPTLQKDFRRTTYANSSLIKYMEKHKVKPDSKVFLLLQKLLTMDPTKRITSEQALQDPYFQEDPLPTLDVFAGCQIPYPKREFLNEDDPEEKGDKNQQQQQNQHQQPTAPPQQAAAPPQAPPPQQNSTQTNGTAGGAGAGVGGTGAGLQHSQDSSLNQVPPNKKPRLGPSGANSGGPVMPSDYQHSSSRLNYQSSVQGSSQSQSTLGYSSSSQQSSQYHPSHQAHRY
Chain of CDK4 (P11802 whole entry): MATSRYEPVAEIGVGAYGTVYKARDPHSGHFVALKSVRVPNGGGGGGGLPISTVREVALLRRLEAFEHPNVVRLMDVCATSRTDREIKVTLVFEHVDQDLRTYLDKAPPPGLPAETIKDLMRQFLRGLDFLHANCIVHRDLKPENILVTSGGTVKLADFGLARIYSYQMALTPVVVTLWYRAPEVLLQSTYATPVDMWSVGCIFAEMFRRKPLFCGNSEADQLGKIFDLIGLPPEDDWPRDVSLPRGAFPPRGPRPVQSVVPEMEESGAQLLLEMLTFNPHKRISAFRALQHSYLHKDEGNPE

| Structure (SMILES) | remaining binding at 1 µM [1] | remaining binding at 1 µM [2] | remaining binding at 1 µM [3] | remaining binding at 1 µM [4] | remaining binding at 1 µM [5] | remaining binding at 1 µM [6] | remaining binding at 1 µM [7] | remaining binding at 1 µM [8] | remaining binding at 1 µM [9] | remaining binding at 1 µM [10] | remaining binding at 1 µM [11] | remaining binding at 1 µM [12] | remaining binding at 1 µM [13] | remaining binding at 1 µM [14] | remaining binding at 1 µM [15] | remaining binding at 1 µM [16] | remaining binding at 1 µM [17] | remaining binding at 1 µM [18] | remaining binding at 1 µM [19] | remaining binding at 1 µM [20] | further results |
| --- | --- | --- | --- | --- | --- | --- | --- | --- | --- | --- | --- | --- | --- | --- | --- | --- | --- | --- | --- | --- | --- |
| CCN1CCN(Cc2cc(NC(=O)c3ccc(C)c(-c4ccc5nc(NC(=O)C6CC6)cn5c4)c3)cc(C(F)(F)F)c2)CC1 [Compound I-6, 3-(2-(cyclopropanecarboxamido)imidazo[1,2-a]pyridin-6-yl)-N-(3-((4-ethylpiperazin-1-yl)methyl)-5-(trifluoromethyl)phenyl)-4-methylbenzamide] | 94% | 36% | 100% | 1.8% | 0.9% | 93% | 94% | 29% | 2.7% | 32% | 100% | 0% | 79% | 91% | 41% | 26% | 87% | 96% | 95% | 98% | remaining binding at 1 µM [21]: 56%; remaining binding at 1 µM [22]: 62%; remaining binding at 1 µM [23]: 92%; remaining binding at 1 µM [24]: 3.9%; remaining binding at 1 µM [25]: 96%; remaining binding at 1 µM [26]: 66%; remaining binding at 1 µM [27]: 97%; remaining binding at 1 µM [28]: 0.5%; remaining binding at 1 µM [29]: 6.5%; remaining binding at 1 µM [30]: 95%; remaining binding at 1 µM [31]: 17%; remaining binding at 1 µM [32]: 96%; remaining binding at 1 µM [33]: 100%; remaining binding at 1 µM [34]: 12%; remaining binding at 1 µM [35]: 3.2%; remaining binding at 1 µM [36]: 92%; remaining binding at 1 µM [37]: 27%; remaining binding at 1 µM [38]: 0.15% |
| CCN1CCN(Cc2cc(NC(=O)c3ccc(C)c(-c4ccc5nc(NC(=O)C6CC6)cn5n4)c3)cc(C(F)(F)F)c2)CC1 [Compound I-2, 3-(2-(cyclopropanecarboxamido)imidazo[1,2-b]pyridazin-6-yl)-N-(3-((4-ethylpiperazin-1-yl)methyl)-5-(trifluoromethyl)phenyl)-4-methylbenzamide] | 100% | 46% | 100% | 0% | 0.2% | 90% | 75% | 38% | 0.6% | 41% | 83% | 0% | 65% | 84% | 28% | 8.4% | 68% | 72% | 90% | 81% | remaining binding at 1 µM [21]: 48%; remaining binding at 1 µM [22]: 72%; remaining binding at 1 µM [23]: 95%; remaining binding at 1 µM [24]: 2.1%; remaining binding at 1 µM [25]: 97%; remaining binding at 1 µM [26]: 85%; remaining binding at 1 µM [27]: 100%; remaining binding at 1 µM [28]: 0.8%; remaining binding at 1 µM [29]: 7.9%; remaining binding at 1 µM [30]: 94%; remaining binding at 1 µM [31]: 21%; remaining binding at 1 µM [32]: 90%; remaining binding at 1 µM [33]: 97%; remaining binding at 1 µM [34]: 19%; remaining binding at 1 µM [35]: 3.9%; remaining binding at 1 µM [36]: 100%; remaining binding at 1 µM [37]: 4.8%; remaining binding at 1 µM [38]: 0% |
